Data set [1] has as its target T1, Prostaglandin G/H synthase 1 (Ovis aries, UniProt P05979).
T1 sequence (P05979 whole entry): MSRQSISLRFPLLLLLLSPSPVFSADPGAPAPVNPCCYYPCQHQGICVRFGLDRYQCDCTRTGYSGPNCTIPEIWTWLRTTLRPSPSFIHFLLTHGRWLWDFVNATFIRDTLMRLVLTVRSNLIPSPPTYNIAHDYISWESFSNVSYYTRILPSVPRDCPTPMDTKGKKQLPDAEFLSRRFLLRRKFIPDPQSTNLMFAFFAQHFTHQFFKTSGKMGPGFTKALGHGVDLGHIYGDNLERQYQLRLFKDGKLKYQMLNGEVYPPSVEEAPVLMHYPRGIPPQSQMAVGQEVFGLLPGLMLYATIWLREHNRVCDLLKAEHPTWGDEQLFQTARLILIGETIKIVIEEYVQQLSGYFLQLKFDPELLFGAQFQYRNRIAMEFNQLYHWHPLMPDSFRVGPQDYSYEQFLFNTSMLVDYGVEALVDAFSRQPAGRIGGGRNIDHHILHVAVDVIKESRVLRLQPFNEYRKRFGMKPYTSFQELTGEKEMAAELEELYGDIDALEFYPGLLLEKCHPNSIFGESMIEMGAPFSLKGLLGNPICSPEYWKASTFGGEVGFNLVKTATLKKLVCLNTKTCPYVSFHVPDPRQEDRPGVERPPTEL
Briefly: Inhibition of ovine COX1.

Data set [2] can be described thus: Cytotoxicity against HDF cells assessed as cell viability at 100 uM by MTT assay. Format: cell-based. The conditions noted are these: human, read-out: Activity. (Formazan colour is commonly taken as a measure of viable cells.)

Each structure is given as a SMILES string.

The record followed here is ChEMBL document CHEMBL3351407, “Synthesis of novel pyrazole–thiadiazole hybrid as potential potent and selective cyclooxygenase-2 (COX-2) inhibitors” (Bioorg Med Chem Lett, 2014).

In general, IC50 refers to the concentration needed to halve the response being measured. A low value points to greater potency in that assay.

In data set [1], `CC(=O)NC1=NN(C(C)=O)C(c2cn(-c3ccccc3)nc2-c2ccc(Br)cc2)S1` (stereo unspecified) displayed an IC50 of 64.7 µM. Moreover, the viability at 100 µM in data set [2] amounted to 51.6%.

`COc1ccc(-c2nn(-c3ccccc3)cc2/C=N\NC2=NC(=O)CS2)cc1`: the IC50 in data set [1] came out at 71.3 µM. The viability at 100 µM in data set [2] is 59.7%.

`O=C1CSC(N/N=C\c2cn(-c3ccccc3)nc2-c2ccc(Cl)cc2)=N1` showed an IC50 in data set [1] of 60.7 µM. Further, the viability at 100 µM in data set [2] is 58.7%.

For `O=C1CS/C(=N/N=C\c2cn(-c3ccccc3)nc2-c2ccc(Br)cc2)N1c1ccccc1`, the concentration for half-maximal inhibition (IC50) in data set [1] is 60.5 µM. In addition, the viability at 100 µM in data set [2] was 57.4%.

`O=C1CS/C(=N/N=C\c2cn(-c3ccccc3)nc2-c2ccc(Cl)cc2)N1c1ccccc1`: in data set [1], the IC50 turned out to be 62.3 µM. Also, the viability at 100 µM in data set [2] is 60.7%.

Regarding `NC(=S)N/N=C\c1cn(-c2ccccc2)nc1-c1ccc(Cl)cc1`, in data set [1], the IC50 was 56.3 µM. Further, the viability at 100 µM in data set [2] came to 71.7%.

Turning to `COc1ccc(-c2nn(-c3ccccc3)cc2C2SC(N(C(C)=O)c3ccccc3)=NN2C(C)=O)cc1` (stereo unspecified), the IC50 in data set [1] was determined as 64.7 µM. Also, in data set [2], the viability at 100 µM amounted to 61.4%.

`CC(=O)N(C1=NN(C(C)=O)C(c2cn(-c3ccccc3)nc2-c2ccc(Cl)cc2)S1)c1ccccc1` (stereo unspecified) yielded a half-maximal inhibitory concentration (IC50) in data set [1] of 70.3 µM. The viability at 100 µM in data set [2] came out at 61.7%.

For `S=C(N/N=C\c1cn(-c2ccccc2)nc1-c1ccc(Br)cc1)Nc1ccccc1`, the IC50 in data set [1] stood at 65.7 µM. The viability at 100 µM in data set [2] worked out at 58.7%.

In turn, `S=C(N/N=C\c1cn(-c2ccccc2)nc1-c1ccc(Cl)cc1)Nc1ccccc1` returned a half-inhibitory concentration (IC50) in data set [1] of 64.5 µM. The viability at 100 µM in data set [2] is 61.7%.

For `NC(=S)N/N=C\c1cn(-c2ccccc2)nc1-c1ccc(Br)cc1`, in data set [1], half-maximal inhibition (IC50) was put at 60.3 µM. Besides, the viability at 100 µM in data set [2] amounted to 57.6%.

For the molecule `CC(=O)NC1=NN(C(C)=O)C(c2cn(-c3ccccc3)nc2-c2ccc(Cl)cc2)S1` (stereo unspecified), the IC50 in data set [1] was 70.3 µM. In data set [2], the viability at 100 µM was 57.7%.

For the molecule `COc1ccc(-c2nn(-c3ccccc3)cc2/C=N\NC(=S)Nc2ccccc2)cc1`, the IC50 in data set [1] stood at 42.3 µM. In addition, the viability at 100 µM in data set [2] is 52.6%.

In data set [1], `COc1ccc(-c2nn(-c3ccccc3)cc2C2SC(NC(C)=O)=NN2C(C)=O)cc1` (stereo unspecified) registered a 50% inhibitory concentration (IC50) of 80.3 µM. Also, the viability at 100 µM in data set [2] is 56.7%.

`CC(=O)N(C1=NN(C(C)=O)C(c2cn(-c3ccccc3)nc2-c2ccc(Br)cc2)S1)c1ccccc1` (stereo unspecified) returned an IC50 in data set [1] of 72.7 µM. Besides, the viability at 100 µM in data set [2] came out at 51.4%.

Molecule `O=C1CSC(N/N=C\c2cn(-c3ccccc3)nc2-c2ccc(Br)cc2)=N1` returned an IC50 in data set [1] of 66.3 µM. In data set [2], the viability at 100 µM is 55.6%.

In turn, `COc1ccc(-c2nn(-c3ccccc3)cc2/C=N\NC(N)=S)cc1` gave an IC50 in data set [1] of 62.3 µM. In addition, the viability at 100 µM in data set [2] was 63.4%.

In data set [1], `COc1ccc(-c2nn(-c3ccccc3)cc2/C=N\N=C2\SCC(=O)N2c2ccccc2)cc1` displayed an IC50 of 62.3 µM. In addition, the viability at 100 µM in data set [2] amounted to 63.4%.
